For data set [1], the system named is Leishmania (L.) infantum intracellular amastigotes. The data set is described as follows: Anti-L. (L.) infantum activity in vitro, intracellular amastigotes in peritoneal macrophages, infection index. Particulars: L. (L.) infantum intracellular amastigotes in BALB/c peritoneal macrophages, 96 h treatment, NA = inactive. The format is cell-based. The method, then: The synthesized compounds were evaluated for their anti-L. (L.) infantum activity on intracellular amastigotes following 96 h treatment, with standard drug miltefosine used as a control. […] Leishmania (L.) infantum (MHOM/BR/1972/LD) amastigotes were obtained by differential centrifugation from golden hamsters (Mesocricetus auratus) spleens with 60–70 days of infection and the number of parasites was determined by the Stauber method.[18] Murine conjunctive fibroblasts NCTC clone 929 (ATCC) were maintained in RPMI-1640 medium supplemented with 10% FBS at pH 7.2 and 37 °C in a humidified incubator with 5% CO2. Peritoneal macrophages were by obtained by washing the peritoneal cavity of BALB/c mice with RPMI-1640 medium supplemented with 10% FBS, pH 7.2 and maintained at 37 °C in a humidified incubator with 5% CO2. Peritoneal macrophages (1 × 10^5/well) were added in 16-well slide chambers (NUNC) and incubated overnight at 37 °C with 5% CO2. Subsequently, the cells were infected with L. (L.) infantum amastigotes (10 : 1 amastigotes/macrophage) for 24 h, treated with compounds serially diluted (6.25 to 50 μM) and incubated for 96 h at 37 °C with 5% CO2. Miltefosine was used as standard drug and untreated cells as a negative control. Slides were fixed with methanol, stained with Giemsa and observed under a light microscope.[19] […] The determination of CC50 and IC50 values was performed by sigmoid dose–response curves using the Graph Pad Prism 5 software. The samples were tested in duplicate and the assays were reproduced at least twice.

Data set [2] has as its system T. cruzi trypomastigotes. Also noted: method as in our previous work. Particulars: ref our previous work; cited from earlier work.
The nature of data set [3]: Mammalian toxicity in vitro, MTT colorimetric method. The format is cell-based, Murine. Particulars: mouse, NCTC clone 929 fibroblasts, pH 7.2, NCTC clone 929 cells, up to 200 μM. The method, then: The synthesized compounds were evaluated for their anti-L. (L.) infantum activity on intracellular amastigotes following 96 h treatment, with standard drug miltefosine used as a control. […] Leishmania (L.) infantum (MHOM/BR/1972/LD) amastigotes were obtained by differential centrifugation from golden hamsters (Mesocricetus auratus) spleens with 60–70 days of infection and the number of parasites was determined by the Stauber method.[18] Murine conjunctive fibroblasts NCTC clone 929 (ATCC) were maintained in RPMI-1640 medium supplemented with 10% FBS at pH 7.2 and 37 °C in a humidified incubator with 5% CO2. Peritoneal macrophages were by obtained by washing the peritoneal cavity of BALB/c mice with RPMI-1640 medium supplemented with 10% FBS, pH 7.2 and maintained at 37 °C in a humidified incubator with 5% CO2. NCTC cells (6 × 10^4/well) were added to 96-well plates and maintained at 37 °C in a 5% CO2 humidified incubator for 96 h with compounds serially diluted (1.6 to 200 μM). […] The determination of CC50 and IC50 values was performed by sigmoid dose–response curves using the Graph Pad Prism 5 software. The samples were tested in duplicate and the assays were reproduced at least twice.

SMILES strings stand for the structures.

Consider `C=CCc1ccc(Oc2cc(CC=C)cc(OC)c2OCc2ccc(OC)cc2)c(OC)c1` [Compound 1], for which the “IC50 (μM) ± SD” value in data set [1] is “inactive”. In data set [2], the “activity against T. cruzi trypomastigotes” value was 4.0 ± 1.4 µM. In data set [3], this compound displayed a CC50 at 96 h of over 200 µM. For `C=CCc1ccc(Oc2cc(CC=C)cc(OC)c2OCOC)c(OC)c1` [Compound 2], the CC50 at 96 h in data set [3] is over 200 µM. In the case of `C=CCc1ccc(Oc2cc(CC=C)cc(OC)c2OCCN2CCCC2)c(OC)c1` [Compound 4], 4.1 ± 1.1 µM corresponded to half-maximal inhibition in data set [1] (Peritoneal macrophage, 96 h) (IC50). The compound further showed a CC50 at 96 h in data set [3] of 24.9 ± 2.6 µM. Taken in the same sequence, the figures for `C=CCc1ccc(Oc2cc(CC=C)cc(OC)c2OCCN2CCOCC2)c(OC)c1` [Compound 5] were 9.6 ± 3.6 µM and 63.7 ± 0.2 µM.

As for `C=CCc1ccc(Oc2cc(CC=C)cc(OC)c2OCC(=O)N2CCCC2)c(OC)c1` [Compound 6], the IC50 in data set [1] (Peritoneal macrophage, 96 h) amounted to 20.3 ± 5.9 µM. The half-maximal cytotoxic concentration (CC50) at 96 h in data set [3] came to 52.9 ± 15.2 µM.

The compound `C=CCc1ccc(Oc2cc(CC=C)cc(OC)c2OCC(=O)N2CCOCC2)c(OC)c1` [Compound 7] had a CC50 at 96 h in data set [3] of 112 ± 8.2 µM.

Take `C=CCc1cc(OC)cc(Oc2ccc(CC=C)cc2OC)c1` [Compound 8]: the CC50 at 96 h in data set [3] was over 200 µM. Regarding `C=CCc1cc(OC)c(OCc2ccc(OC)cc2)c(Oc2ccccc2OC)c1` [Compound 9], the IC50 in data set [1] (Peritoneal macrophage, 96 h) was found to be 24.2 ± 18.2 µM. The compound further registered a CC50 at 96 h in data set [3] of over 200 µM. Regarding `C=CCc1ccc(Oc2cccc(OC)c2OCc2ccc(OC)cc2)c(OC)c1` [Compound 10], in data set [3], the CC50 at 96 h was over 200 µM. `C=CCc1cc(OC)c(OC(C)=O)c(Oc2ccccc2OC)c1` [Compound 11] registered an IC50 in data set [1] (Peritoneal macrophage, 96 h) of 32.7 ± 5 µM. The half-maximal cytotoxic concentration (CC50) at 96 h in data set [3] was over 200 µM. `C=CCc1ccc(Oc2cccc(OC)c2OC(C)=O)c(OC)c1` [Compound 12] had a CC50 at 96 h in data set [3] of over 200 µM. Same read-out and setting: the figure for `C=CCc1cc(OC)c(OC)c(Oc2ccccc2OC)c1` [Compound 13] is over 200 µM; for `C=CCc1ccc(Oc2cccc(OC)c2OC)c(OC)c1` [Compound 14] it is over 200 µM; for `C=CCc1cc(OC)c(O)c(Oc2ccccc2OC)c1` [Compound 15] it is 31.6 ± 11.3 µM.

As to `C=CCc1ccc(Oc2cccc(OC)c2O)c(OC)c1` [Compound 16], in data set [3], the CC50 at 96 h was over 200 µM.

Turning to `C=CCc1cc(OC)c(O)c(Oc2ccc(CCC)cc2OC)c1` [Compound 17], the CC50 at 96 h in data set [3] came out at 42 ± 3.8 µM. Same read-out and setting: the figure for `C=CCc1ccc(Oc2cc(CCC)cc(OC)c2O)c(OC)c1` [Compound 18] is 14.2 ± 0.1 µM; for `C=CCc1cc(OC)c(OC)c(Oc2ccc(CCC)cc2OC)c1` [Compound 19] it is over 200 µM; for `C=CCc1cc(OC)c(OCc2ccc(OC)cc2)c(Oc2ccc(CCC)cc2OC)c1` [Compound 20] it is over 200 µM. On the same count and under the same terms, the result for `C=CCc1ccc(Oc2cc(CCC)cc(OC)c2OCc2ccc(OC)cc2)c(OC)c1` [Compound 21] reads over 200 µM; that for `CCCc1ccc(Oc2cc(CCC)cc(OC)c2OCc2ccc(OC)cc2)c(OC)c1` [Compound 22], over 200 µM. Still for that read-out and setting: the figure for `C=CCc1cc(OC)c(OCc2ccc(OC)cc2)c(Oc2ccc(CN3CCCC3)cc2OC)c1` [Compound 23] is 6.2 ± 1.2 µM. `C=CCc1cc(OC)c(OCc2ccc(OC)cc2)c(Oc2ccc(CN3CCOCC3)cc2OC)c1` [Compound 24] gave an IC50 in data set [1] (Peritoneal macrophage, 96 h) of 9.7 ± 2 µM. The CC50 at 96 h in data set [3] is over 200 µM. In data set [1] (Peritoneal macrophage, 96 h), `CCCc1cc(OC)c(OCc2ccc(OC)cc2)c(Oc2ccc(CN3CCOCC3)cc2OC)c1` [Compound 25] came in with an IC50 of 7.7 ± 0.8 µM. Further, in data set [3], the CC50 at 96 h was determined as 74.4 ± 4.4 µM. Turning to `CCCc1cc(OC)c(OCc2ccc(OC)cc2)c(Oc2ccc(CN3CCCCC3)cc2OC)c1` [Compound 26], the IC50 in data set [1] is 3.7 ± 0.5 µM; in data set [1] (Peritoneal macrophage, 96 h), about 3 µM. Moreover, the 50% cytotoxic concentration (CC50) at 96 h in data set [3] came out at 14.5 ± 0.2 µM. In the case of `COc1ccc(COc2c(OC)cc(CN3CCOCC3)cc2Oc2ccc(CN3CCOCC3)cc2OC)cc1` [Compound 27], the IC50 in data set [1] (Peritoneal macrophage, 96 h) was determined as 27.8 ± 7.4 µM. In data set [3], the CC50 at 96 h worked out at 74.4 ± 5.8 µM. Taken in the same sequence, the figures for `CCCc1ccc(Oc2cc(CN3CCOCC3)cc(OC)c2OCc2ccc(OC)cc2)c(OC)c1` [Compound 28] were 16.4 ± 4.3 µM and over 200 µM.

In data set [1] (Peritoneal macrophage, 96 h), `CCCc1ccc(Oc2cc(CN3CCOCC3)cc(OC)c2OCc2ccc(C(F)(F)F)cc2)c(OC)c1` [Compound 29] had an IC50 of 13.2 ± 2.1 µM. Further, the CC50 at 96 h in data set [3] was over 200 µM. For `CCCc1ccc(Oc2cc(CN3CCOCC3)cc(OC)c2OCc2cc(OC)c(OC)c(OC)c2)c(OC)c1` [Compound 30], in that order: 26.3 ± 3.2 µM and over 200 µM.

As to `C=CCc1cc(OC)c(O)c(Oc2ccc(CN3CCOCC3)cc2OC)c1` [Compound 31], the “IC50 (μM) ± SD” value in data set [1] is reported as “no anti-parasitic activity”. Further, it took 51.4 ± 4.7 µM to reach half-maximal cytotoxicity in data set [3] (CC50 at 96 h).

Consider `C=CCc1cc(OC)c(O)c(Oc2ccc(CN3CCCC3)cc2OC)c1` [Compound 32], for which, in data set [1], the “IC50 (μM) ± SD” value is given as “no anti-parasitic activity”. In data set [3], this compound returned a CC50 at 96 h of 43.3 ± 5.3 µM. `CCCc1ccc(Oc2cc(CN3CCCCC3)cc(OC)c2OCc2ccc(OC)cc2)cc1` [Compound 33] displayed an IC50 in data set [1] (Peritoneal macrophage, 96 h) of about 3 µM. The compound further came in with a CC50 at 96 h in data set [3] of 22.7 ± 0.9 µM. For `CCCc1ccc(Oc2cc(CN3CCOCC3)cc(OC)c2OCc2ccc(OC)cc2)cc1` [Compound 34], in that order: 15.3 ± 1.9 µM and over 200 µM.

For the compound `CCCc1ccc(OCc2ccc(OC)cc2)c(Oc2ccc(CN3CCOCC3)cc2OC)c1` [Compound 35], in data set [1], the “IC50 (μM) ± SD” value was “inactive”. This compound had a CC50 at 96 h in data set [3] of 33.8 ± 4.9 µM.

`C=CCc1ccc(Oc2cc(CC=C)cc(OC)c2OCc2ccc(OC)cc2)cc1` [Compound 36] came in with a CC50 at 96 h in data set [3] of over 200 µM. Compound `C=CCc1ccc(Oc2cc(CC=C)cc(OC)c2O)cc1` [Compound 37] displayed a CC50 at 96 h in data set [3] of 123 ± 9.4 µM. Still for that read-out and setting: the figure for `C=CCc1ccc(Oc2cc(CC=C)ccc2OCc2ccc(OC)cc2)c(OC)c1` [Compound 38] is over 200 µM; for `C=CCc1ccc(O)c(Oc2ccc(CC=C)cc2OC)c1` [Compound 39] it is 129 ± 5.2 µM. Compound `CCCCCCCCCCCCCCCCOP(=O)([O-])OCC[N+](C)(C)C` [Milt., miltefosine, reference compound] yielded an IC50 in data set [1] (Peritoneal macrophage, 96 h) of 6.5 ± 3 µM. The compound also yielded a CC50 at 96 h in data set [3] of 120 ± 4.2 µM.

The values above are taken from publication PMC10357944 (RSC Medicinal Chemistry, 2023).
